Measured values reported in patent publication US9133103B2, “N-substituted benzenepropanamide and benzenepropenamide for use in the prevention or the treatment of affective disorders” (Novaremed, Ltd., priority 2011, dated 2015).

Experiments:
Assay type in all cases: in vivo
Balb/c mice [1] = test: Elevated plus maze; conditions: 0.1, 0.5, 2.5 mg/kg p.o., test on day 8, 15 minutes, in comparison to control mice
Method: This model uses the natural fear of rodents to avoid open and elevated places. The apparatus consists of a plus-maze with two enclosed and two opposite open arms, elevated above the floor. […] This is one of the most widely used models to study effects of anxiety-like behaviour. The maze consisted of two opposing open arms (40×10 cm) and two opposing closed arms (40×10 cm, with 40 cm walls) on a platform 50 cm above the ground.
The groups of mice were treated as in Example 2 and an elevated plus maze test was carried out on day 8. This test was used as a further test of the anxiolytic effect of the drugs of the invention.
The mice were placed in the centre of the maze facing an open arm and were allowed to freely explore the maze for 15 minutes. During this time, their behaviour was observed.

Balb/c mice [2] = test: Marble burying test; conditions: 0.1, 0.5 and 2.5 mg/kg p.o., test on day 15, 20 glass marbles, 20 minutes; against control mice; FIG. 4
Method: The marble burying test is a useful model of neophobia, anxiety and obsessive-compulsive behaviour. It has also been proposed that the test may have predictive validity for the screening of novel antidepressants, anxiolytics and antipsychotics. Mice can be expected to bury roughly 75% of the marbles in a 30 min period, although it varies with strain and gender. In this study, male Balb/c mice were used.
The groups of mice were treated as in Example 2 and a marble burying test was carried out on day 15. The mice were placed individually into a cage containing 20 glass marbles and exposed for 20 minutes. The number of marbles buried by the mice was monitored. […] This test provides further evidence of the anxiolytic properties of this compound, in particular with respect to treatment of obsessive compulsive disorder (OCD).

Balb/c mice [3] = test: Open field test (exploratory locomotor activity); conditions: 0.1 or 5 mg/kg oral, subchronic; for time spent in zones 2 and 3: in comparison to control mice, FIG. 1F; for locomotor activity (distance moved, velocity, strong mobility and immobility): recorded over 20 minutes, in comparison to the control mice, FIG. 1A-1D
Method: This method is one of the most popular in evaluation of animals' behaviour. It tests both motility parameters and anxiety (Prut et al). An individual mouse is placed in a novel plexiglass arena of 50×50 cm the floor of which is divided into 3 digital zones. The outer peripheral zone 1, the medial zone 2 and the most central zone 3. The animal behaviour in the open field is recorded by videotaping for 20 min and analyzed subsequently digitally using Noldus software for animal behaviour. The measurements include general motility: distance moved, velocity and strong mobility, as well as anxiety parameters including frequency of visits to the central area, time spent in the inner field, and number of rearing events in the centre. The more the animal stays and performs in the centre, it is less anxious.
40, 9 week old naïve male Balb/c mice were divided in 5 groups (8 mice in each group) and treated daily (0 min, p.o.) for two weeks, as follows: • 1. Control—0.5% DMSO 0.3 ml/mouse, po (3 ml/10 mice) (15 μl DMSO+2994 μl DDW), n=8. • 2. Diclofenac 10 mg/Kg=0.3 mg/0.3 ml/mouse, i.p. (3 ml/10 mice), n=8 • 3. 135S 0.5 mg/Kg=0.015 mg/0.3 ml/mouse, po (3 ml/10 mice) (135S 0.15 mg (Stock 50 mg/1 ml DMSO) 3 μl+2997 μl DDW), n=8 • 4. 135S 2.5 mg/kg=0.075 mg/0.3 ml/mouse, po (3 ml/10 mice) ([…] 0.75 mg (Stock 50 mg/1 ml DMSO) 15 μl+2985 μl DDW), n=8 • 5. 135S 0.1 mg/Kg=0.003 mg/0.3 ml/mouse, po (3 ml/10 mice) (135S […] (Stock 50 mg/1 ml DMSO) 0.6 μl+2999.4 μl DDW), n=8
Fifteen days after treatment, the five groups of mice listed above were subjected to the open field test for […]. The activity of the mice was assessed by an EthoVision video track system (Noldus Ltd.) A centre zone (“zone 3”; approximately 16% of the total area), a border area (“zone 1”; an 8 cm wide border around the edge of the arena) and an intermediate zone (“zone 2”; the remaining area) were defined. Quantitative parameters, such as the distance travelled and average speed, were recorded for the centre zone and the entire arena.
An Open Field test measures activity in a novel environment and can be used to assess a combination of locomotor activity, exploratory drive, neophobia, agoraphobia and other aspects of anxiety or fear in mice, as well as motor function. Treatment using a 0.1 mg/kg or 5 mg/kg dose of 135S or 175S compound was compared to the effect of treatment with a control substance (DMSO) or Diclofenac. The mice were placed in the centre of the arena and their activity and behaviour was recorded over a period of 20 minutes in respect of the distance moved (cm), velocity (cm/s), strong mobility and immobility. The ratio of total duration between the inner zones 2 and 3 in comparison to the outer zone 1 was recorded. The total duration in the inner zones 2 and 3 was also determined.

Balb/c mice [4] = test: Forced swim test
From the text: This is one of the most widely used tools for screening antidepressant activity preclinically in an acute test and was first described by Porsolt et al (1977). The test is based on the observation that rats and mice develop an immobile posture when placed in an inescapable cylinder of water. This behavior is considered to be a behavioural despair as opposed to an active form of coping with stressful conditions. An antidepressant will reduce immobility and increase motivated behaviour of the rodent to escape from the despaired conditions. This is evidenced by increase in time of swimming, distance moved, velocity and attempts to climb the walls (strong mobility). FST is considered a good screen tool with good reliability and predictive validity.
The test in male mice (Balb/c Harlan IL) was conducted after 4 days of drug administration (90 min post last drug administration). Round glass cylinders 18 cm diameter and 20 cm depth were used. Water temperature was 24-28° C. Motivated behaviour was defined by immobility, swimming and strong mobility. Immobility in the animals was defined by activity lower than 10% movement of the centre of gravity of the animal. Swimming was defined by the distance and the velocity of the animal, and climbing was related to strong mobility (movement of centre of gravity more than 30%). Animals were dropped to the cylinder for 6 min and scoring was performed in the last 4 min after 2 min of adaptation. All results were analyzed by the Noldus (Holland) system including a camera and software for animal behaviour analyses.
Mice were treated with compound 135S at three different concentrations (0.1 mg/kg, 0.5 mg/kg and 2.5 mg/kg), or with the anti-depressant Fluoxetine (10 mg/kg) administered orally in a daily dose for 14 days. The forced swim test was performed on […].
In a first trial, the mice were placed in a tank of water, from which they could not escape. The mobility and immobility of the mice was monitored. In a second trial, the same mice were placed back into the tank. The mobility and immobility of the mice was again monitored.

[5] = 0.1, 0.5 and 2.5 mg/kg oral, in comparison to control mice, FIG. 2A-2C

SMILES	exploration of the maze (Balb/c mice [1]; FIG. 3A-3D)	time spent within the open arms (Balb/c mice [1]; FIG. 3B)	number of marbles buried (Balb/c mice [2])	time spent in zones 2 and 3 (Balb/c mice [3])	locomotor activity (distance moved, velocity, strong mobility and immobility) (Balb/c mice [3])	immobility (Balb/c mice [4]; [5])	mobility (Balb/c mice [4]; [5])	anti-depressant effect compared with Fluoxetine (Balb/c mice [4]; 135S 0.1, 0.5 and 2.5 mg/kg against Fluoxetine 10 mg/kg, oral)
CC(O)COCC(Cc1ccc(O)cc1)NC(=O)CCc1ccccc1 (stereo not shown) [Compound 135S]	increased exploration of the maze	increased time spent within the open arms	significantly less marbles than control mice	significant increase	did not show a significant effect	decrease	increase	greater than that resulting from treatment of mice with the common anti-depressant drug Fluoxetine
O=C(CCc1ccccc1)NC(COCCO)Cc1ccc(O)cc1 (stereo not shown) [Compound 175S]				significant increase	did not show a significant effect			
